Activity calls are given as the source filed them. The rule behind the calls is not given here.
How the values were obtained:
Neutrophil [1] = assay: cells; settings: Homo sapiens
Cathepsin G = target: T1, Cathepsin G (Homo sapiens, UniProt P08311); assay: Inhibition of human cathepsin G using N-succinyl-Ala-Ala-Pro-Phe-p-nitroanilide as substrate measured for 180 mins by spectrophotometry
T1 sequence (P08311 whole entry): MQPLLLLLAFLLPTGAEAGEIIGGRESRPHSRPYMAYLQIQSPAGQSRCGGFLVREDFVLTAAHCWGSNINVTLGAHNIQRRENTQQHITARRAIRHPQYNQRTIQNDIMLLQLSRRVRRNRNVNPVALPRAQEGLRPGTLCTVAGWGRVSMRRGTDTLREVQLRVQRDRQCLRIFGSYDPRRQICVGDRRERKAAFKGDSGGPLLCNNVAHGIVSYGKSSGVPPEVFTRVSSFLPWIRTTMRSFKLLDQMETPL

Neutrophil elastase [2] = target: T2, Neutrophil elastase (Homo sapiens, UniProt P08246); assay: Inhibition of human neutrophil elastase measured for 30 mins by spectrophotometry
T2 sequence (P08246 whole entry): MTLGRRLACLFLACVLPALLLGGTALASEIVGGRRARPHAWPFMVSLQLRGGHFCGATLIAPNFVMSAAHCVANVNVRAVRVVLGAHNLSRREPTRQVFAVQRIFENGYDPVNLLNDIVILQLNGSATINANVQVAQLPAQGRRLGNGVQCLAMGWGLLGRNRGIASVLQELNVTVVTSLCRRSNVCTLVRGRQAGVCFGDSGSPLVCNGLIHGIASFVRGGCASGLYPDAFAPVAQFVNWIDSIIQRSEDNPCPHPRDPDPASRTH

Neutrophil [3] = assay: cells; settings: Homo sapiens; remark: listed apart in the source
Prothrombin = Prothrombin (Bos taurus, UniProt P00735); assay: Inhibition of bovine plasma thrombin using Benzoyl-Phe-Val-Arg-7-amido-4-methylcoumarin hydrochloride by spectrophotometry
Myeloblastin = target: T3, Myeloblastin (Homo sapiens, UniProt P24158); assay: Inhibition of Pr3 (unknown origin) using t-butyloxycarbonyl-Ala-Ala-Nva-thiobenzyl ester as substrate measured for 180 mins by spectrophotometry
T3 sequence (P24158 whole entry): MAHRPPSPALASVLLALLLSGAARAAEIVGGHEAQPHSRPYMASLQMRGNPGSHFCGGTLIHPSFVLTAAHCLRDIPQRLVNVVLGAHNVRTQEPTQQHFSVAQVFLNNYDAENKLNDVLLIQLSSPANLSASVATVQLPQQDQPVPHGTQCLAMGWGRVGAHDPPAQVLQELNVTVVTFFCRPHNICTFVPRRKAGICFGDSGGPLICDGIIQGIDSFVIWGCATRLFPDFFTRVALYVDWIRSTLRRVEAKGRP

Mus musculus [4] = assay: Antiinflammatory activity in C57BL/6 mouse assessed as inhibition of LPS-induced edema compound treated 1 hr prior challenge at 100 mg/kg, ip measured up to 240 mins; format: functional, organism-based; parameters: dose 100 mg/kg
[5] = Inhibition of bovine pancreas chymotrypsin using N-succinyl-Ala-Ala-Pro-Phe-7-amido-4-methylcoumarin by spectrophotometry; parameters: species or system Bos taurus
Mus musculus [6] = assay: Protection from LPS-induced acute lung injury in C57BL/6 mouse assessed as inhibition of LPS-induced alveolar thickening treated 1 hr prior LPS challenge at 100 mg/kg, ip measured 6 hrs post LPS injection by hematoxylin and eosin staining method
[7] = Inhibition of bovine pancreatic trypsin using Nalpha-benzoyl-L-arginine-7-amido-4-methylcoumarin; parameters: species or system Bos taurus
Mus musculus [8] = assay: Protection from LPS-induced acute lung injury in C57BL/6 mouse assessed as inhibition of LPS-induced lung tissue destruction treated 1 hr prior LPS challenge at 100 mg/kg, ip measured 6 hrs post LPS injection by hematoxylin and eosin staining method
Mus musculus [9] = assay: Protection from LPS-induced acute lung injury in C57BL/6 mouse assessed as inhibition of leukocyte infiltration in lung treated 1 hr prior challenge at 100 mg/kg, ip
Mus musculus [10] = assay: Protection from LPS-induced acute lung injury in C57BL/6 mouse assessed as inhibition of LPS-induced leukocyte infiltration treated 1 hr prior LPS challenge at 100 mg/kg, ip measured 6 hrs post LPS injection by hematoxylin and eosin staining method
Mus musculus [11] = assay: Protection from LPS-induced acute lung injury in C57BL/6 mouse assessed as inhibition of LPS-induced diffuse edematous changes treated 1 hr prior LPS challenge at 100 mg/kg, ip measured 6 hrs post LPS injection by hematoxylin and eosin staining method
Mus musculus [12] = assay: Antiinflammatory activity in C57BL/6 mouse assessed as inhibition of human neutrophil elastase-induced edema compound treated 1 hr prior challenge at 100 mg/kg, ip measured up to 240 mins; format: functional, organism-based; parameters: dose 100 mg/kg
Pancreatic elastase = Pancreatic elastase (Sus scrofa, UniProt P08419+P00772); assay: Inhibition of porcine pancreatic elastase using methoxysuccinyl-Ala-Ala-Pro-Val-p-nitroanilide as substrate preincubated for 15 mins before substrate addition measured after 60 mins by spectrophotometry; format: protein assay
Neutrophil elastase [13] = target: T4, Neutrophil elastase (Mus musculus, UniProt Q3UP87); assay: Inhibition of recombinant mouse neutrophil elastase using methoxysuccinyl-Ala-Ala-Pro-Val-pnitroanilide as substrate preincubated for 15 mins before substrate addition measured after 90 mins by spectrophotometry
T4 sequence (Q3UP87 whole entry): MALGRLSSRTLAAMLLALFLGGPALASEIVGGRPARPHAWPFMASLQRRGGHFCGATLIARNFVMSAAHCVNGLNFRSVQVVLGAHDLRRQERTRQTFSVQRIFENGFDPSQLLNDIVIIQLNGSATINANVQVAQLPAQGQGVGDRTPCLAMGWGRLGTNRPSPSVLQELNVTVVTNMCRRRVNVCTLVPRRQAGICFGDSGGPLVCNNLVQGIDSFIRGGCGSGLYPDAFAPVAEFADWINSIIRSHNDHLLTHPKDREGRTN

Mus musculus [14] = assay: Protection from LPS-induced acute lung injury in C57BL/6 mouse assessed as inhibition of MPO activity in lung tissue treated 1 hr prior challenge at 100 mg/kg, ip
Mus musculus [15] = assay: Toxicity in C57BL/6 mouse assessed as effect on lung structure at 100 mg/kg, ip by hematoxylin and eosin staining method; format: organism-based; parameters: dose 100 mg/kg, route intraperitoneal; settings: in vivo
Mus musculus [16] = assay: Antiinflammatory activity in C57BL/6 mouse assessed as inhibition of human neutrophil elastase-induced edema compound treated ip 1 hr prior challenge measured up to 240 mins post dose; format: functional, organism-based
Mus musculus [17] = assay: Toxicity in C57BL/6 mouse assessed as effect on pulmonary alveoli at 100 mg/kg, ip by hematoxylin and eosin staining method; format: organism-based; parameters: dose 100 mg/kg, route intraperitoneal; settings: in vivo
Mus musculus [18] = assay: Antiinflammatory activity in C57BL/6 mouse assessed as inhibition of human neutrophil elastase-induced edema compound treated 1 hr prior challenge at 50 to 100 mg/kg, ip; format: functional, organism-based; settings: TDE = time-dependent effect

IC50 (Neutrophil [1]) [µM] | IC50 (Cathepsin G) [µM] | IC50 (Neutrophil elastase [2]) [µM] | IC50 (Neutrophil [3]) [µM] | SMILES | further results
 | > 10 |  | > 20 | CC(C)(C)C(=O)Oc1ccc(S(=O)(=O)Nc2ccccc2C(=O)NCC(=O)O)cc1 | IC50 (Prothrombin): > 10 µM; IC50 (Myeloblastin): 0.34 µM; inhibition (Mus musculus [4]): Active; IC50 [5]: 1.95 µM; inhibition (Mus musculus [6]): Active; IC50 [7]: > 10 µM; inhibition (Mus musculus [8]): Active; inhibition (Mus musculus [9]): Active; inhibition (Mus musculus [10]): Active; inhibition (Mus musculus [11]): Active; inhibition (Mus musculus [12]): Active; IC50 (Pancreatic elastase): 2.18517 µM; IC50 (Neutrophil elastase [13]): 0.145 µM; inhibition (Mus musculus [14]): Active
 | > 10 | 0.37 | > 20 | CCCC(=O)c1ccccc1NS(=O)(=O)c1ccc(OC(=O)C(C)(C)C)cc1 | 
0.05 | > 10 | 0.29 | > 20 | CC(C)(C)C(=O)Oc1ccc(S(=O)(=O)Nc2ccccc2C(=O)OCCO)cc1 | 
 | > 10 | 0.19 | > 20 | CCC(=O)c1ccccc1NS(=O)(=O)c1ccc(OC(=O)C(C)(C)C)cc1 | 
4.94 | > 10 |  |  | COC(=O)c1ccccc1NS(=O)(=O)c1ccc(OC(=O)C(C)(C)C(F)(F)F)cc1 | 
13.6 | > 10 | > 10 | > 20 | COC(=O)c1ccccc1NS(=O)(=O)c1ccc(NC(=O)C(C)(C)C)cc1 | IC50 (Myeloblastin): > 10 µM
 | > 10 |  | > 20 | CO/N=C(\C)c1ccccc1NS(=O)(=O)c1ccc(OC(=O)C(C)(C)C)cc1 | 
0.05 | > 10 | 0.13 | > 20 | CC(C)(C)C(=O)Oc1ccc(S(=O)(=O)Nc2ccccc2C(=O)NCCO)cc1 | 
 | > 10 |  | 19.6 | C/C(=N/O)c1ccccc1NS(=O)(=O)c1ccc(OC(=O)C(C)(C)C)cc1 | IC50 (Prothrombin): > 10 µM; Activity (Mus musculus [15]): Non-toxic; inhibition (Mus musculus [16]): Dose-dependent effect; inhibition (Mus musculus [4]): Active; IC50 [5]: 0.594 µM; inhibition (Mus musculus [6]): Active; IC50 [7]: > 10 µM; Activity (Mus musculus [17]): Non-toxic; inhibition (Mus musculus [8]): Active; inhibition (Mus musculus [9]): Active; inhibition (Mus musculus [10]): Active; inhibition (Mus musculus [11]): Active; IC50 (Pancreatic elastase): 1.88198 µM; IC50 (Neutrophil elastase [13]): 0.191 µM; inhibition (Mus musculus [18]): tde; inhibition (Mus musculus [14]): Active
 | > 10 |  | > 20 | CO/N=C(/C)c1ccccc1NS(=O)(=O)c1ccc(OC(=O)C(C)(C)C)cc1 | 
0.11 | > 10 | 2.24 | > 20 | CCCCC(=O)c1ccccc1NS(=O)(=O)c1ccc(OC(=O)C(C)(C)C)cc1 | 
 | > 10 |  | 13.4 | CC/C(=N/O)c1ccccc1NS(=O)(=O)c1ccc(OC(=O)C(C)(C)C)cc1 | 
0.09 | > 10 | 0.11 | > 20 | CC(=O)c1ccccc1NS(=O)(=O)c1ccc(OC(=O)C(C)(C)C)cc1 | 

Continued, compound first:

SMILES | IC50 (Neutrophil [1]) [µM] | IC50 (Cathepsin G) [µM] | IC50 (Neutrophil elastase [2]) [µM] | IC50 (Neutrophil [3]) [µM] | further results
CCCOC(=O)c1ccccc1NC(=O)c1ccc(OC(=O)C(C)(C)C)cc1 | 0.62 | > 10 | 1.23 | > 20 | 
CC(C)(C)C(=O)Oc1ccc(S(=O)(=O)Nc2ccccc2/C=N\O)cc1 |  | > 10 |  | > 20 | 
CC(C)(C)[S+]([O-])Nc1ccc(S(=O)(=O)Nc2ccccc2C=O)cc1 (centres undefined) | 9.41 | > 10 | > 10 | > 20 | IC50 (Myeloblastin): > 10 µM
CC(C)(C)C(=O)Oc1ccc(S(=O)(=O)Nc2ccccc2C=O)cc1 | 0.05 | > 10 | 0.12 | > 20 | 
CCC/C(=N/O)c1ccccc1NS(=O)(=O)c1ccc(OC(=O)C(C)(C)C)cc1 |  | > 10 |  | > 20 | 
COC(=O)c1ccccc1NC(=O)c1ccc(OC(=O)C(C)(C)C)cc1 | 0.55 | > 10 | 0.82 | > 20 | 
COC(=O)c1ccccc1NC(=O)c1ccc(OC(=O)C(C)(C)C(F)(F)F)cc1 | > 20 | > 10 | > 10 | > 20 | IC50 (Myeloblastin): > 10 µM
CCOC(=O)c1ccccc1NC(=O)c1ccc(OC(=O)C(C)(C)C(F)(F)F)cc1 | 13.8 | > 10 | > 10 | > 20 | IC50 (Myeloblastin): > 10 µM
CCCOC(=O)c1ccccc1NC(=O)c1ccc(OC(=O)C(C)(C)C(F)(F)F)cc1 | > 20 | > 10 | > 10 | > 20 | IC50 (Myeloblastin): > 10 µM
CCOC(=O)c1ccccc1NC(=O)c1ccc(OC(=O)C(C)(C)C)cc1 | 0.3 | > 10 | 0.48 | > 20 | 

— ChEMBL document CHEMBL3396960, “Synthesis and pharmacological characterization of 2-aminobenzaldehyde oxime analogs as dual inhibitors of neutrophil elastase and proteinase 3” (Bioorg Med Chem, 2015)
